# Measured values from US12391683B2, “Therapeutic compounds and methods” (Actio Biosciences, Inc., priority 2022, dated 2025).
# What was measured:
# TRPV3 channels = target: T1, TRPV3 channels (Homo sapiens, UniProt Q8NET8); assay: TRP Family FLIPR Assay, TRPV3; format: cell-based; settings: HEK293 cells (transient)
# T1 construct: expressed in transfected cells; host or cells: HEK293 (transient)
# T1 sequence (Q8NET8 1-790): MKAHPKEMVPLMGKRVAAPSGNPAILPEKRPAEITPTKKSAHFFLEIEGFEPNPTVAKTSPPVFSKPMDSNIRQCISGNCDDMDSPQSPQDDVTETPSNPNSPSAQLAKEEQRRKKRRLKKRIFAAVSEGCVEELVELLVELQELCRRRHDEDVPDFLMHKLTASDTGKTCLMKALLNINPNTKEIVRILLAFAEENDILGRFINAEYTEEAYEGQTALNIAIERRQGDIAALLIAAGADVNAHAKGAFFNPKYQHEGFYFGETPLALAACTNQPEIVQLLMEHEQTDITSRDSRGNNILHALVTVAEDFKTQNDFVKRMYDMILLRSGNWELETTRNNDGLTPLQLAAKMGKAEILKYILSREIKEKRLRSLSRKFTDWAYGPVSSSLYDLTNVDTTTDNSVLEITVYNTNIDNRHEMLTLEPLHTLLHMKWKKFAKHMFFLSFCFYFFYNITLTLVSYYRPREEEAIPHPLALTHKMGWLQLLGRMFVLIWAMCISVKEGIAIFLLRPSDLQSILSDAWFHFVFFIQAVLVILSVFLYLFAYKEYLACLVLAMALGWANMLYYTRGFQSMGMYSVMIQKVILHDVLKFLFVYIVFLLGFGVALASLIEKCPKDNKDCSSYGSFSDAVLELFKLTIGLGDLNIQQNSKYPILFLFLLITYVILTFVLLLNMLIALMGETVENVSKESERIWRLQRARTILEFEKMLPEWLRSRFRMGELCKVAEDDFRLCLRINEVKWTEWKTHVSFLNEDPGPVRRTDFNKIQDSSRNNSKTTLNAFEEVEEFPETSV
# Experimental: The compound of Example 5 was tested for selectivity against a panel of Human TRP family ion channels in a TRP Family FLIPR Assay as described below. • 1. TRPC3 channels (human TRPC3 variant 1 gene, expressed in HEK293 cells). • 2. TRPC4 channels (human TRPC4 gene, expressed in HEK293 cells). • 3. TRPC5 channels (human TRPC5 gene, expressed in HEK293 cells). • 4. TRPC6 channels (human TRPC6 gene, expressed in HEK293 cells). • 5. TRPM2 channels (human TRPM2 gene, transiently expressed in HEK293 cells). • 6. TRPM3 channels (human TRPM3 gene, transiently expressed in HEK293 cells). • 7. TRPM4 channels (human TRPM4 gene, expressed in CHO cells). • 8. […]
# Data acquisition was performed via the FLIPR Control software supplied with the FLIPR System (MDS-AT) and data was analyzed using Microsoft Excel (Microsoft Corp., Redmond, WA) or GraphPad Prism. […]
# [formula] where Base is the response at low concentrations of test article, Max is the maximum response at high concentrations, xhalf the EC50, or IC50, the concentration of test article producing either half-maximal activation or inhibition, and rate is the Hill coefficient. […] No assumptions about the fit parameters was made; the fit parameters were determined by the algorithm.
# The effect of each test article was evaluated at eight (8) concentrations: 0.003, 0.01, 0.03, 0.1, 0.3, 1, 3 and 10 μM, n≤4 wells/concentration). […]
# Hepatocytes = Hepatocytes predicted clearance, dog
compound,measurement,setting,value
"CC(C)(O)c1cnc(N2C[C@@]3(CC[C@@H](F)[C@](C)(Cn4cnc5ccc(C#N)cc54)C3)OC2=O)cn1 (single isomer, unassigned) [Example 5]",EC50,"TRPV3 channels; agonist mode, vs EMAX of cannabidiol 300 μM, read-out: EC50 hTRPV3",> 10 µM
same,IC50,"TRPV3 channels; antagonist mode, activated with 2-APB 50 μM, 0.003-10 μM, read-out: IC50 hTRPV3",> 10 µM
same,Hepatocytes predicted clearance in dog,Hepatocytes,11 mL/min/kg
